Assay results taken from PMC11233931, “Remodeling tumor‐associated macrophage for anti‐cancer effects by rational design of irreversible inhibition of mitogen‐activated protein kinase‐activated protein kinase 2” (MedComm, 2024).

Legend:
Experiment in all cases: Eurofins kinase selectivity profile against 380 other human recombinant kinases (Table S2)
Assay type in all cases: biochemical
[1] = target: T1, 380 human recombinant protein kinases (Homo sapiens, UniProt Q07912); settings: ACK1(h), read-out: Inhibition rate
T1 construct: purchased Eurofins (Celle Lévescault)
Outline: (§1)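 Profiling against 380 human recombinant kinases carried out by Eurofins at various compound concentrations.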

[2] = target: T2, 380 human recombinant protein kinases (Homo sapiens, UniProt Q96GD4); settings: Aurora-B(h), read-out: Inhibition rate
T2 construct: purchased Eurofins (Celle Lévescault)
Outline: as §1

[3] = target: T3, 380 human recombinant protein kinases (Homo sapiens, UniProt O00443); settings: PI3KC2α(h), read-out: Inhibition rate (%)
T3 construct: purchased Eurofins (Celle Lévescault)
Outline: as §1

[4] = target: T4, 380 human recombinant protein kinases (Homo sapiens, UniProt Q14680); settings: MELK(h), read-out: Inhibition rate
T4 construct: purchased Eurofins (Celle Lévescault)
Outline: as §1

[5] = target: T5, 380 human recombinant protein kinases (Homo sapiens, UniProt O00329); settings: PI3 Kinase (p110δ/p85α)(h), read-out: Inhibition rate (%)
T5 construct: purchased Eurofins (Celle Lévescault)
T5 sequence (O00329 1-1044): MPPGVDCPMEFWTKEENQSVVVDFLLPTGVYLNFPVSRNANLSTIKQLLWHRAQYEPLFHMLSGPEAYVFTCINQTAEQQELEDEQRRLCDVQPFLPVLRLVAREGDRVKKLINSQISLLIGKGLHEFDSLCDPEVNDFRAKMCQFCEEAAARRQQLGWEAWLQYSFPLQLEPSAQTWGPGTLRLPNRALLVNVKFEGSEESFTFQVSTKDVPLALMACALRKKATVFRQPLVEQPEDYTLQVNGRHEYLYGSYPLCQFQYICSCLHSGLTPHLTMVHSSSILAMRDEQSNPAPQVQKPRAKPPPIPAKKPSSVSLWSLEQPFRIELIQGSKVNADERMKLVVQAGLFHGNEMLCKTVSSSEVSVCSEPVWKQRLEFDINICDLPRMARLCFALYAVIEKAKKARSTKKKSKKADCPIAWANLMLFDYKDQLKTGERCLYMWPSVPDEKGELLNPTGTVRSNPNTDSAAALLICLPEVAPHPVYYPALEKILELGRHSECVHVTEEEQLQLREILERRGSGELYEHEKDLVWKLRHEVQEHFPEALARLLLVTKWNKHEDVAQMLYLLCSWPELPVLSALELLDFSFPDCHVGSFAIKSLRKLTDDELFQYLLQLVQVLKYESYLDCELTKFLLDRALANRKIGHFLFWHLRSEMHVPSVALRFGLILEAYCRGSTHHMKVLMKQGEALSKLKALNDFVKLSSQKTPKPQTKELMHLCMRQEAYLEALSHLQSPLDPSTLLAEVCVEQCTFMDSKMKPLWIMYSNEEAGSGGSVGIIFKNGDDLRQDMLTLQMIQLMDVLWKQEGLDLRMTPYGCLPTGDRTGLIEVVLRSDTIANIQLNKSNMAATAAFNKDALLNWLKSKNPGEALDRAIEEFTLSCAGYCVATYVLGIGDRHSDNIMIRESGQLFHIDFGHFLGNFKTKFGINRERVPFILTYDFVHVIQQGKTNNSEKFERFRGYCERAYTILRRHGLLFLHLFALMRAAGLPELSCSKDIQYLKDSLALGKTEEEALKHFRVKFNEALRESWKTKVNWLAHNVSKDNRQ
Outline: as §1

[6] = target: T6, 380 human recombinant protein kinases (Homo sapiens, UniProt O15146); settings: MuSK(h), read-out: Inhibition rate
T6 construct: purchased Eurofins (Celle Lévescault)
T6 sequence (O15146 24-869): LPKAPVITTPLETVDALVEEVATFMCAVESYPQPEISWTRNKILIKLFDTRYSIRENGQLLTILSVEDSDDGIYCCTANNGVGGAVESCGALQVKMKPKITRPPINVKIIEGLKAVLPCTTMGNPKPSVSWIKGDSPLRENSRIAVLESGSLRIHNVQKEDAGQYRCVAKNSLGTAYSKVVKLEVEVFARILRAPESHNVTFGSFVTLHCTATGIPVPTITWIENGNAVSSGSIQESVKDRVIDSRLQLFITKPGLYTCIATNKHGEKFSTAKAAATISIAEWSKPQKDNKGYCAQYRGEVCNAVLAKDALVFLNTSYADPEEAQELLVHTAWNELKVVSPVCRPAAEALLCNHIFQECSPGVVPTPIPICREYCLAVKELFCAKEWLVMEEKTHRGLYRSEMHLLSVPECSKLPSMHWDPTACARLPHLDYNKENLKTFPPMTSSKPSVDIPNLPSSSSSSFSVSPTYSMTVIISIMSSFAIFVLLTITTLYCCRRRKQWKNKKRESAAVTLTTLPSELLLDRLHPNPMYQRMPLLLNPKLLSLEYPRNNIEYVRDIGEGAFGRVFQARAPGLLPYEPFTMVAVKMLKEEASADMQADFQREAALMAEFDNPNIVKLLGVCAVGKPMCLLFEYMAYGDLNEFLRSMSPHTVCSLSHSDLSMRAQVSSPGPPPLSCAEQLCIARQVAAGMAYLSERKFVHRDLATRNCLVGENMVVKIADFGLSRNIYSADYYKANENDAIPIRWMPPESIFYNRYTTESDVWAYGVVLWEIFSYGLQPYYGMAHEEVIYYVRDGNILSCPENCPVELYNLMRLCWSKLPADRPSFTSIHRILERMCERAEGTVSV
Outline: as §1

[7] = target: T7, 380 human recombinant protein kinases (Homo sapiens, UniProt Q9NYY3); settings: Snk(h), read-out: Inhibition rate (%)
T7 construct: purchased Eurofins (Celle Lévescault)
Outline: as §1

T3 sequence (O00443 whole entry): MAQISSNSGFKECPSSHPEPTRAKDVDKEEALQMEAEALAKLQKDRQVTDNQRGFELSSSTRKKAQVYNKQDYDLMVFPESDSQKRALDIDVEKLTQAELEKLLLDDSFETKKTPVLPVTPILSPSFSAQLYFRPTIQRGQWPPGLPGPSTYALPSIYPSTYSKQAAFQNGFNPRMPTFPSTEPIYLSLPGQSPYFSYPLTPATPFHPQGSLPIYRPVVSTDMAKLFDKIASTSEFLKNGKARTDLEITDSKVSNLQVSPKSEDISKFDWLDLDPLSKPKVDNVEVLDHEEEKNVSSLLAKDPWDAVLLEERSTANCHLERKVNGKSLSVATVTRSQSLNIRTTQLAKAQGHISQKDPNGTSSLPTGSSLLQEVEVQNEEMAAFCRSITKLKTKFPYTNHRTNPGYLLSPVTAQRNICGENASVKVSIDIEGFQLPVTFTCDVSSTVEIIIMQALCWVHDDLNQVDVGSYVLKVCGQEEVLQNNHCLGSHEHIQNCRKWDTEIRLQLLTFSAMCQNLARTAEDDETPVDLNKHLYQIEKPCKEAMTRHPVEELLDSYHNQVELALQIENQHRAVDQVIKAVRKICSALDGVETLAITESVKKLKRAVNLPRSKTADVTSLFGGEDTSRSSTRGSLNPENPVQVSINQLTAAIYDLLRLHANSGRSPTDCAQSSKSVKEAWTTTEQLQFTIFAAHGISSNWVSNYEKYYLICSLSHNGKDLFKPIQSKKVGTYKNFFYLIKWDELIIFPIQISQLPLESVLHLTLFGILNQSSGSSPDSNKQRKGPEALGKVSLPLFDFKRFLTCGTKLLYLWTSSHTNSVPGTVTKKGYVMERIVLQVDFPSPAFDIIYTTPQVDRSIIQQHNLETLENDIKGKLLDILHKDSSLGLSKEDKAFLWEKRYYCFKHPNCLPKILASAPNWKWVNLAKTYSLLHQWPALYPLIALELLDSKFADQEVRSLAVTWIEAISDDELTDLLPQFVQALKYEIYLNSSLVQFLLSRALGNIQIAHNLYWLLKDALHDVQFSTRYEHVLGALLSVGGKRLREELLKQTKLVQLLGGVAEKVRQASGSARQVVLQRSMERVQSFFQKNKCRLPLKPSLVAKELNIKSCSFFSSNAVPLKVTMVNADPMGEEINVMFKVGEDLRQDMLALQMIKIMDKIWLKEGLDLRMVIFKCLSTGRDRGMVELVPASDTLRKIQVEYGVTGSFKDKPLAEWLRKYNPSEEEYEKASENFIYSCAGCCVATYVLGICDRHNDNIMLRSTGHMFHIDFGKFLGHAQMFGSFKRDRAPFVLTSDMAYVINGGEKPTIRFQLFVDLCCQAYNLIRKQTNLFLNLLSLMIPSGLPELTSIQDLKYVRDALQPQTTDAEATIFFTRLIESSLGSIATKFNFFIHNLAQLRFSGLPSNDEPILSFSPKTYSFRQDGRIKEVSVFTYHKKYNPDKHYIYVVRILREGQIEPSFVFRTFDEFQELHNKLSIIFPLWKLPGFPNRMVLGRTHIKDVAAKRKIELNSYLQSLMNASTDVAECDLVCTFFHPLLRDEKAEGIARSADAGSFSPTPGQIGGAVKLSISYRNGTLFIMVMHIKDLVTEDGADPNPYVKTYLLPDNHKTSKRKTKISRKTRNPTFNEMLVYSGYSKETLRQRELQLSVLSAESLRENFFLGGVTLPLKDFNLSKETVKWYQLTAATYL
T4 sequence (Q14680 whole entry): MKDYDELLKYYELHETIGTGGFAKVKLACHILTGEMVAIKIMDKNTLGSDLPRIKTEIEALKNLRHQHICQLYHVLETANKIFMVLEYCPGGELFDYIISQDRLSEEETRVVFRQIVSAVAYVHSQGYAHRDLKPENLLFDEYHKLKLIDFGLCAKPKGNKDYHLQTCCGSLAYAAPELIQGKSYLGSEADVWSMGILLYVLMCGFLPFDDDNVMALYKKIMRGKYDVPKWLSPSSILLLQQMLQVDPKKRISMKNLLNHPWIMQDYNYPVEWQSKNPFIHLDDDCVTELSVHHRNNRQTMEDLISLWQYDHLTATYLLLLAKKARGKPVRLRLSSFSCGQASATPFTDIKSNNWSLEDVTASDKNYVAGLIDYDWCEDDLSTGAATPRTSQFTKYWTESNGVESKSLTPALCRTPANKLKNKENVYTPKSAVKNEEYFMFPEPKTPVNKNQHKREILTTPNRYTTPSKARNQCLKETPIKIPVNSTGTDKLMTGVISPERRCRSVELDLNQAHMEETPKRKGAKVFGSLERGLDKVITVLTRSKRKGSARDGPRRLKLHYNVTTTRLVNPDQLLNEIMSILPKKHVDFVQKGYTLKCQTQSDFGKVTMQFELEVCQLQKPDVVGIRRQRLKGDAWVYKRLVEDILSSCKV
T2 sequence (Q96GD4 whole entry): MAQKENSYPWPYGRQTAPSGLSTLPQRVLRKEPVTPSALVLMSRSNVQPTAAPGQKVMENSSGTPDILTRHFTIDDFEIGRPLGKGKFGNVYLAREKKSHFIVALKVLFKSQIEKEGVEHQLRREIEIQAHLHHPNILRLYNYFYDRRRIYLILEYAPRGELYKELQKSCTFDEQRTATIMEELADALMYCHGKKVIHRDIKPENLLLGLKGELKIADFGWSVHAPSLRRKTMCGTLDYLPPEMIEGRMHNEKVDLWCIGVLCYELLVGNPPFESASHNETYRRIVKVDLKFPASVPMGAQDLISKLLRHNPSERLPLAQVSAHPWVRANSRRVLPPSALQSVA
T7 sequence (Q9NYY3 whole entry): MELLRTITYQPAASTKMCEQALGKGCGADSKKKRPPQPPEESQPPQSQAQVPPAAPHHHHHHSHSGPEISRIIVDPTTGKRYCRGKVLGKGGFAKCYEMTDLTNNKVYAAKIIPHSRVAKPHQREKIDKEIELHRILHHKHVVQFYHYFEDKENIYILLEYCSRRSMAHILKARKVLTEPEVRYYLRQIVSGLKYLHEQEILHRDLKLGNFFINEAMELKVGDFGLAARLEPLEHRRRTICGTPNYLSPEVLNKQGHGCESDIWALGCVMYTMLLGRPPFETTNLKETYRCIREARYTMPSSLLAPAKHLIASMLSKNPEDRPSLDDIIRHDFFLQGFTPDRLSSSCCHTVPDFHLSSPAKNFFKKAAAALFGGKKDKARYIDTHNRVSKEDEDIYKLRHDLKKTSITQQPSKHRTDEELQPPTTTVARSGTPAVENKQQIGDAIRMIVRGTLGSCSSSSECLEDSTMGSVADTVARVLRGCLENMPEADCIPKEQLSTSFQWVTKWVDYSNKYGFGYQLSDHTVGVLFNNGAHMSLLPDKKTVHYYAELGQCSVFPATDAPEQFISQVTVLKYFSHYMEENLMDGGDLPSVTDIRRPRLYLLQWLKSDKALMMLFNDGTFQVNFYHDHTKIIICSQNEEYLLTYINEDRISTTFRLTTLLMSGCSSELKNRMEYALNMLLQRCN
T1 sequence (Q07912 whole entry): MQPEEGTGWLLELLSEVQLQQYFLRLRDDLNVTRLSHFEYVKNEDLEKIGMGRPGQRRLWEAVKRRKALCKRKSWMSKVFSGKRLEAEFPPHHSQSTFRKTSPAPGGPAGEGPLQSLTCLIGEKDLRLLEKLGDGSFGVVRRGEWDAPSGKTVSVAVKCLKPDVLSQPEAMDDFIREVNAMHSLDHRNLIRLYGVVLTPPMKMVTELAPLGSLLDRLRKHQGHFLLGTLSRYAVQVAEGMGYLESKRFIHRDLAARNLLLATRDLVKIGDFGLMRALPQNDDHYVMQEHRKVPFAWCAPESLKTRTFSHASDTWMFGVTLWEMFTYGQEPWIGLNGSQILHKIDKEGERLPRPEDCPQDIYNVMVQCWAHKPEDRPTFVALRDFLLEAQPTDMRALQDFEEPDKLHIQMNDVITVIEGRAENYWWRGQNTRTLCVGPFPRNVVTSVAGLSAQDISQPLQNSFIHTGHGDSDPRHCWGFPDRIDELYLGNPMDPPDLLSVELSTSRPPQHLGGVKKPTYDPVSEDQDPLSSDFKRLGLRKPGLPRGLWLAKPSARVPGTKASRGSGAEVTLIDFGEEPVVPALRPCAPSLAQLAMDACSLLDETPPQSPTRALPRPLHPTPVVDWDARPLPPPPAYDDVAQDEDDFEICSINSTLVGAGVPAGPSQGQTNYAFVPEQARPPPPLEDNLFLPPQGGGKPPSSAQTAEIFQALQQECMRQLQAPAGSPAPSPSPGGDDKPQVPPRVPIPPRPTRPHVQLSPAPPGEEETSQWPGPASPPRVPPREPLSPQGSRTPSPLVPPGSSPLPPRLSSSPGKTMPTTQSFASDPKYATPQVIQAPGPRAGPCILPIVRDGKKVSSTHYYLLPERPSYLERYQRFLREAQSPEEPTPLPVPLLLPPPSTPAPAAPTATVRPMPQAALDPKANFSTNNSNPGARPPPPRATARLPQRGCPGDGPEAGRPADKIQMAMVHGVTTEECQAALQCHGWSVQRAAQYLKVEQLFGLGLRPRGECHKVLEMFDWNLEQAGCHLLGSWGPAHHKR

C=CC(=O)Nc1cc(-c2cc(-c3cc4c([nH]3)CCNC4=O)ccn2)ccc1OC(F)(F)F [compound 11]
inhibition at 0.01 µM ([1]; 10 nM): 1% | inhibition at 0.1 µM ([1]; 100 nM): 2% | inhibition at 1 µM ([1]; 1000 nM): 3% | inhibition at 0.01 µM ([2]; 10 nM): 4% | inhibition at 0.1 µM ([2]; 100 nM): 19% | inhibition at 1 µM ([2]; 1000 nM): 27% | inhibition at 0.01 µM ([3]; 10 nM): -4% | inhibition at 0.1 µM ([3]; 100 nM): -2% | inhibition at 1 µM ([3]; 1000 nM): -5% | inhibition at 0.01 µM ([4]; 10 nM): -7% | inhibition at 0.1 µM ([4]; 100 nM): 5% | inhibition at 1 µM ([4]; 1000 nM): 30% | inhibition at 0.01 µM ([5]; 10 nM): -3% | inhibition at 0.1 µM ([5]; 100 nM): -1% | inhibition at 1 µM ([5]; 1000 nM): 2% | inhibition at 0.01 µM ([6]; 10 nM): 7% | inhibition at 0.1 µM ([6]; 100 nM): 7% | inhibition at 1 µM ([6]; 1000 nM): 7% | inhibition at 0.01 µM ([7]; 10 nM): 0% | inhibition at 0.1 µM ([7]; 100 nM): 10% | inhibition at 1 µM ([7]; 1000 nM): 15%
